Source: ChEMBL document CHEMBL3991601, “The target landscape of clinical kinase drugs” (Science, 2017)
Active and inactive are the calls of the source.
Also: in the data inactive means no Kd found up to 30 µM.

Each compound was assayed against Serine/threonine-protein kinase 26 (Homo sapiens, UniProt Q9P289).
Chain of Serine/threonine-protein kinase 26 (Q9P289 whole entry): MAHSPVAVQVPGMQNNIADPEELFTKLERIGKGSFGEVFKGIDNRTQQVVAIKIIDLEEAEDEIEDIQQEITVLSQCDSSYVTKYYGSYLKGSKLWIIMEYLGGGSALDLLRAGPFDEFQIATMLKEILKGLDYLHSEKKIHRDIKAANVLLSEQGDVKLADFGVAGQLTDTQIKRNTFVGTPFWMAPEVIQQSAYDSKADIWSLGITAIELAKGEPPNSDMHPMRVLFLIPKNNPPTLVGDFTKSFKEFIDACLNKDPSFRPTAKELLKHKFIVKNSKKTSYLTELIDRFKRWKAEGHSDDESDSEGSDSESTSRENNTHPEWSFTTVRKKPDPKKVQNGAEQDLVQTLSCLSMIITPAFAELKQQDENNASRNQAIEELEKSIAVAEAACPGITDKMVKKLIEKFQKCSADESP
With CCN1CCN(Cc2ccc(-c3cc4c(N[C@H](C)c5ccccc5)ncnc4[nH]3)cc2)CC1 [AEE-788] the Kd was > 30 µM (inactive).
In the case of COc1cc(N2CCC(N3CCN(C)CC3)CC2)ccc1Nc1ncnc(Nc2ccccc2S(=O)(=O)C(C)C)n1 [ASP-3026], the Kd is reported as > 30 µM (inactive).
With Cc1cc([C@@H](C)Nc2ccccc2C(=O)O)c2nc(N3CCOCC3)cc(=O)n2c1 [AZD-6482] the Kd was > 30 µM (inactive).
COc1ccc(-c2ccc3c(N4CCOC[C@@H]4C)nc(N4CCOC[C@@H]4C)nc3n2)cc1CO [AZD-8055] was tested, and the Kd was > 30 µM (inactive).

These compounds were tested against cAMP-dependent protein kinase catalytic subunit gamma (Homo sapiens, UniProt P22612).
Chain of cAMP-dependent protein kinase catalytic subunit gamma (P22612 whole entry): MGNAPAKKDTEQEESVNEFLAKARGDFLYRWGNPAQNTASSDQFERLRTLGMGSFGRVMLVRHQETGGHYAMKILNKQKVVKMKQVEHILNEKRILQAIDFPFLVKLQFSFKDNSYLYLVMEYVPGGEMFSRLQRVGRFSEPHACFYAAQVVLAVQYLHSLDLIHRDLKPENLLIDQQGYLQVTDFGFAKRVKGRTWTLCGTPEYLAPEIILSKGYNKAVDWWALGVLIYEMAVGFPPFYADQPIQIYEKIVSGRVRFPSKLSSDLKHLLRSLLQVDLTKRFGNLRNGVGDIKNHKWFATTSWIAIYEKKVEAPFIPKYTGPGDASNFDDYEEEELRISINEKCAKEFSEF
For CCN1CCN(Cc2ccc(-c3cc4c(N[C@H](C)c5ccccc5)ncnc4[nH]3)cc2)CC1 [AEE-788], the Kd was > 30 µM (inactive).
For COc1cc(N2CCC(N3CCN(C)CC3)CC2)ccc1Nc1ncnc(Nc2ccccc2S(=O)(=O)C(C)C)n1 [ASP-3026], the Kd was > 30 µM (inactive).
Cc1cc([C@@H](C)Nc2ccccc2C(=O)O)c2nc(N3CCOCC3)cc(=O)n2c1 [AZD-6482] was tested, and the Kd was > 30 µM (inactive).
In the case of COc1ccc(-c2ccc3c(N4CCOC[C@@H]4C)nc(N4CCOC[C@@H]4C)nc3n2)cc1CO [AZD-8055], the Kd is reported as > 30 µM (inactive).

What follows are compounds tested against T1, Ribosyldihydronicotinamide dehydrogenase [quinone] (Homo sapiens, UniProt P16083).
T1 sequence (P16083 whole entry): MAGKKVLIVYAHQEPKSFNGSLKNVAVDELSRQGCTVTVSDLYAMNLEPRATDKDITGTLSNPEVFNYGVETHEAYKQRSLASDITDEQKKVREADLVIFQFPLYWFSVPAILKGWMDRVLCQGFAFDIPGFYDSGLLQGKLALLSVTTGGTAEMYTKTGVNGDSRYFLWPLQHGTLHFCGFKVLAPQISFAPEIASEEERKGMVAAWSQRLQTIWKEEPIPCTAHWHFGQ
With CCN1CCN(Cc2ccc(-c3cc4c(N[C@H](C)c5ccccc5)ncnc4[nH]3)cc2)CC1 [AEE-788] the Kd was > 30 µM (inactive).
With COc1cc(N2CCC(N3CCN(C)CC3)CC2)ccc1Nc1ncnc(Nc2ccccc2S(=O)(=O)C(C)C)n1 [ASP-3026] the Kd was 6.36 µM (active).
For Cc1cc([C@@H](C)Nc2ccccc2C(=O)O)c2nc(N3CCOCC3)cc(=O)n2c1 [AZD-6482], the Kd was > 30 µM (inactive).
With COc1ccc(-c2ccc3c(N4CCOC[C@@H]4C)nc(N4CCOC[C@@H]4C)nc3n2)cc1CO [AZD-8055] the Kd was > 30 µM (inactive).

These compounds were tested against Bone morphogenetic protein receptor type-1A (Homo sapiens, UniProt P36894).
Chain of Bone morphogenetic protein receptor type-1A (P36894 whole entry): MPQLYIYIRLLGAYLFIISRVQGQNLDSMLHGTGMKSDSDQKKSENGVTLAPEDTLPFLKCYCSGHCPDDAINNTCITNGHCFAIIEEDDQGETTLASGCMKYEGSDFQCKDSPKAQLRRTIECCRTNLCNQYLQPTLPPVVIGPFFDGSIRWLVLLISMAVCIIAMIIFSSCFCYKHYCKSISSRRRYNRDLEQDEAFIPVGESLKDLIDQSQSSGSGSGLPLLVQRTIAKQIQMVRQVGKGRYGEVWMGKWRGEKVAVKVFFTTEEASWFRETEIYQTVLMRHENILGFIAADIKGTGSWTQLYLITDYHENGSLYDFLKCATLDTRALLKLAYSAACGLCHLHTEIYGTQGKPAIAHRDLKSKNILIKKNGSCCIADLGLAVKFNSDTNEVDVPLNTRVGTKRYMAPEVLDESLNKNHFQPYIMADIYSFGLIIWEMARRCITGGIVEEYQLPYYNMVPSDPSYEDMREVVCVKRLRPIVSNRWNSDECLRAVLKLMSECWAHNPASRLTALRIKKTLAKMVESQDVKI
In the case of CCN1CCN(Cc2ccc(-c3cc4c(N[C@H](C)c5ccccc5)ncnc4[nH]3)cc2)CC1 [AEE-788], the Kd is reported as > 30 µM (inactive).
For COc1cc(N2CCC(N3CCN(C)CC3)CC2)ccc1Nc1ncnc(Nc2ccccc2S(=O)(=O)C(C)C)n1 [ASP-3026], the Kd was > 30 µM (inactive).
For Cc1cc([C@@H](C)Nc2ccccc2C(=O)O)c2nc(N3CCOCC3)cc(=O)n2c1 [AZD-6482], the Kd was > 30 µM (inactive).
For COc1ccc(-c2ccc3c(N4CCOC[C@@H]4C)nc(N4CCOC[C@@H]4C)nc3n2)cc1CO [AZD-8055], the Kd was > 30 µM (inactive).

Each compound was assayed against T2, ADP/ATP translocase 2 (Homo sapiens, UniProt P05141).
T2 sequence (P05141 whole entry): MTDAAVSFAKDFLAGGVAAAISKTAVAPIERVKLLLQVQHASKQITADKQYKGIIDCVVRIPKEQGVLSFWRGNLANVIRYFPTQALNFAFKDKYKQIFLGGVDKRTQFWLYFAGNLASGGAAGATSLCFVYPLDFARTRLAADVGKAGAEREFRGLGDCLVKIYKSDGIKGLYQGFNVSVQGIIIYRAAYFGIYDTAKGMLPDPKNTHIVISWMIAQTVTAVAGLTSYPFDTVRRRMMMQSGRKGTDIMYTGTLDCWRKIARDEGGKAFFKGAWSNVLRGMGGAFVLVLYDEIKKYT
With CCN1CCN(Cc2ccc(-c3cc4c(N[C@H](C)c5ccccc5)ncnc4[nH]3)cc2)CC1 [AEE-788] the Kd was > 30 µM (inactive).
For COc1cc(N2CCC(N3CCN(C)CC3)CC2)ccc1Nc1ncnc(Nc2ccccc2S(=O)(=O)C(C)C)n1 [ASP-3026], the Kd was > 30 µM (inactive).
In the case of Cc1cc([C@@H](C)Nc2ccccc2C(=O)O)c2nc(N3CCOCC3)cc(=O)n2c1 [AZD-6482], the Kd is reported as > 30 µM (inactive).
For COc1ccc(-c2ccc3c(N4CCOC[C@@H]4C)nc(N4CCOC[C@@H]4C)nc3n2)cc1CO [AZD-8055], the Kd was > 30 µM (inactive).

Each compound was assayed against Actin-related protein 2 (Homo sapiens, UniProt P61160).
CCN1CCN(Cc2ccc(-c3cc4c(N[C@H](C)c5ccccc5)ncnc4[nH]3)cc2)CC1 [AEE-788] was tested, and the Kd was > 30 µM (inactive).
For Cc1cc([C@@H](C)Nc2ccccc2C(=O)O)c2nc(N3CCOCC3)cc(=O)n2c1 [AZD-6482], the Kd was > 30 µM (inactive).
For COc1ccc(-c2ccc3c(N4CCOC[C@@H]4C)nc(N4CCOC[C@@H]4C)nc3n2)cc1CO [AZD-8055], the Kd was > 30 µM (inactive).

What follows are compounds tested against T3, Structural maintenance of chromosomes protein 1A (Homo sapiens, UniProt Q14683).
T3 sequence (Q14683 whole entry): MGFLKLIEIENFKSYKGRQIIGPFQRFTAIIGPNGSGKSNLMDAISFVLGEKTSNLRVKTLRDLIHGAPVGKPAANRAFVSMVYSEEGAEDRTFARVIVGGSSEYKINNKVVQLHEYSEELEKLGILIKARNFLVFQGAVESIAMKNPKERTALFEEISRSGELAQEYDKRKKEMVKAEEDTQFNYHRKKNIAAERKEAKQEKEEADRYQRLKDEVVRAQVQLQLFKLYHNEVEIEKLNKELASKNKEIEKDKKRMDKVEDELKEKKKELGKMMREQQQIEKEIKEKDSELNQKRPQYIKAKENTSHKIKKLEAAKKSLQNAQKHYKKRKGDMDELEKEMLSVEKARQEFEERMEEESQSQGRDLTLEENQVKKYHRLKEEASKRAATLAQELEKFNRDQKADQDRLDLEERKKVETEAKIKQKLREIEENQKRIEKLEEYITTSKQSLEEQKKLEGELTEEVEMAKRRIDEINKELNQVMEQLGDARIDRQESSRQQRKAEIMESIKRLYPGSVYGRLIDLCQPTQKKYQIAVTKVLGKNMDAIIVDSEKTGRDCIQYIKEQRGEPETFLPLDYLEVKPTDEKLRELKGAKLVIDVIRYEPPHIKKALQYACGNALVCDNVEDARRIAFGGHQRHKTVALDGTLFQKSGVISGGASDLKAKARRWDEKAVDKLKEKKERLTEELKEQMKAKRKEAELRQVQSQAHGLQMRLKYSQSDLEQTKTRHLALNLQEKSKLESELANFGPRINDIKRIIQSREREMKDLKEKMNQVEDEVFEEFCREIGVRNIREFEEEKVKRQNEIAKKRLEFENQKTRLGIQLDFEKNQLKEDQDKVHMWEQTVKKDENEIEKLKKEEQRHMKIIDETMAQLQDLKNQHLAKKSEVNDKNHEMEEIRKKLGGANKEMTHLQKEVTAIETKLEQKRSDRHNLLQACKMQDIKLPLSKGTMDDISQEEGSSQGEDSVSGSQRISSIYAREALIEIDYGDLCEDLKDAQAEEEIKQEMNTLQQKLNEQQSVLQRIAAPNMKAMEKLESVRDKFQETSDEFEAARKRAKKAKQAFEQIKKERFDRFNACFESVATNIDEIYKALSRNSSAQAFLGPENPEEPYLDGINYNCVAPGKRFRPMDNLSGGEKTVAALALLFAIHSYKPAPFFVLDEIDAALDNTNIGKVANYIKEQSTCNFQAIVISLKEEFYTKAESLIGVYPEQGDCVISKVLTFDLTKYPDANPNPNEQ
With CCN1CCN(Cc2ccc(-c3cc4c(N[C@H](C)c5ccccc5)ncnc4[nH]3)cc2)CC1 [AEE-788] the Kd was > 30 µM (inactive).
In the case of Cc1cc([C@@H](C)Nc2ccccc2C(=O)O)c2nc(N3CCOCC3)cc(=O)n2c1 [AZD-6482], the Kd is reported as > 30 µM (inactive).
For COc1ccc(-c2ccc3c(N4CCOC[C@@H]4C)nc(N4CCOC[C@@H]4C)nc3n2)cc1CO [AZD-8055], the Kd was > 30 µM (inactive).

These compounds were tested against Serine/threonine-protein kinase/endoribonuclease IRE1 (Homo sapiens, UniProt O75460).
Chain of Serine/threonine-protein kinase/endoribonuclease IRE1 (O75460 whole entry): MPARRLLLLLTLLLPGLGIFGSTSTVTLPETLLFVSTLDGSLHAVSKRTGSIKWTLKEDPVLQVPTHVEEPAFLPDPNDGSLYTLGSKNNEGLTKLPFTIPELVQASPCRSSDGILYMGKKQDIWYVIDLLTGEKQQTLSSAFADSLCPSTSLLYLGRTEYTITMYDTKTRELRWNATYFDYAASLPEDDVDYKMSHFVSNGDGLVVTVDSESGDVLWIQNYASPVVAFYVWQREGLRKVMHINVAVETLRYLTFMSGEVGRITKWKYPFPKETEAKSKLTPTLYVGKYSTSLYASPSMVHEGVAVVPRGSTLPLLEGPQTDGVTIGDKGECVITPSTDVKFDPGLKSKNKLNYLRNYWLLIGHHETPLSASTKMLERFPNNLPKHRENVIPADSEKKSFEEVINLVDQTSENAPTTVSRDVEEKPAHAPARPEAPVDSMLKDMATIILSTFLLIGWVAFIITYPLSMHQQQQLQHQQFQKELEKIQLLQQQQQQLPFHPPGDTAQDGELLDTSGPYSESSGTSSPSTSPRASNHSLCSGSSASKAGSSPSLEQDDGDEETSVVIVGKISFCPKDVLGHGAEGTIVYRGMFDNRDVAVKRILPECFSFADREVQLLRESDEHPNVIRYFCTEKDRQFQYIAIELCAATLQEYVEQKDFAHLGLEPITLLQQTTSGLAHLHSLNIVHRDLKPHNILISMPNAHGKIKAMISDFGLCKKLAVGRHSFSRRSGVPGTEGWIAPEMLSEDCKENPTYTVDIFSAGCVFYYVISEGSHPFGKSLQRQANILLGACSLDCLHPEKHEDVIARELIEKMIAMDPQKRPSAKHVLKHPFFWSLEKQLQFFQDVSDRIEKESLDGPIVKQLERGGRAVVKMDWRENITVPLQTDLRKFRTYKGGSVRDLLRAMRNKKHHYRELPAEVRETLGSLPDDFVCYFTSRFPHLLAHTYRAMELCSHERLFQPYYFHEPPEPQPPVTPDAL
For CCN1CCN(Cc2ccc(-c3cc4c(N[C@H](C)c5ccccc5)ncnc4[nH]3)cc2)CC1 [AEE-788], the Kd was > 30 µM (inactive).
In the case of COc1cc(N2CCC(N3CCN(C)CC3)CC2)ccc1Nc1ncnc(Nc2ccccc2S(=O)(=O)C(C)C)n1 [ASP-3026], the Kd is reported as 12.2 µM (active).
In the case of Cc1cc([C@@H](C)Nc2ccccc2C(=O)O)c2nc(N3CCOCC3)cc(=O)n2c1 [AZD-6482], the Kd is reported as > 30 µM (inactive).
For COc1ccc(-c2ccc3c(N4CCOC[C@@H]4C)nc(N4CCOC[C@@H]4C)nc3n2)cc1CO [AZD-8055], the Kd was > 30 µM (inactive).

Each compound was assayed against Casein kinase II subunit alpha' (Homo sapiens, UniProt P19784).
Chain of Casein kinase II subunit alpha' (P19784 whole entry): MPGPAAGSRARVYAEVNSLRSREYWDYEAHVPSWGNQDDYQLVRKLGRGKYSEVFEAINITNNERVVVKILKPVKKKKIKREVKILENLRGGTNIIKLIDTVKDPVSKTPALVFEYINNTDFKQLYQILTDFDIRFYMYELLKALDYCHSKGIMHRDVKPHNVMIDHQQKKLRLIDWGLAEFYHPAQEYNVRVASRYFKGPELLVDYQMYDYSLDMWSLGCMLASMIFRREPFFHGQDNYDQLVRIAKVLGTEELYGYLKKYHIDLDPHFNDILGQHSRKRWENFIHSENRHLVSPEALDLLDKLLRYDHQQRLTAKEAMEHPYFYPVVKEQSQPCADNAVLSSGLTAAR
With CCN1CCN(Cc2ccc(-c3cc4c(N[C@H](C)c5ccccc5)ncnc4[nH]3)cc2)CC1 [AEE-788] the Kd was > 30 µM (inactive).
For COc1cc(N2CCC(N3CCN(C)CC3)CC2)ccc1Nc1ncnc(Nc2ccccc2S(=O)(=O)C(C)C)n1 [ASP-3026], the Kd was > 30 µM (inactive).
With Cc1cc([C@@H](C)Nc2ccccc2C(=O)O)c2nc(N3CCOCC3)cc(=O)n2c1 [AZD-6482] the Kd was > 30 µM (inactive).
For COc1ccc(-c2ccc3c(N4CCOC[C@@H]4C)nc(N4CCOC[C@@H]4C)nc3n2)cc1CO [AZD-8055], the Kd was > 30 µM (inactive).

The compounds below were run against T4, Probable ATP-dependent RNA helicase DDX6 (Homo sapiens, UniProt P26196).
T4 sequence (P26196 whole entry): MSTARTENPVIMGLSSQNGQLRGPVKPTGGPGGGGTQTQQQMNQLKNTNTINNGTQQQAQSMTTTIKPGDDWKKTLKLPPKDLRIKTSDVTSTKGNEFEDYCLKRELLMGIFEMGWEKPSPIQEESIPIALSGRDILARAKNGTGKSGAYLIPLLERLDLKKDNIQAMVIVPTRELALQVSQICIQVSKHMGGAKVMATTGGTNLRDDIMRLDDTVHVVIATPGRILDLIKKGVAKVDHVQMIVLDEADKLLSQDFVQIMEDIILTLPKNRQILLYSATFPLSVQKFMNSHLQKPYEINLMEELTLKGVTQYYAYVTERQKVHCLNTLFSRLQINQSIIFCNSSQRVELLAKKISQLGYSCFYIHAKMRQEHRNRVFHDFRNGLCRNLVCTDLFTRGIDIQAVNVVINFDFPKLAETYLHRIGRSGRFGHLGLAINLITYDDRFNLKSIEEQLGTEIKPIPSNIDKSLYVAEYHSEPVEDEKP
For CCN1CCN(Cc2ccc(-c3cc4c(N[C@H](C)c5ccccc5)ncnc4[nH]3)cc2)CC1 [AEE-788], the Kd was > 30 µM (inactive).
With COc1cc(N2CCC(N3CCN(C)CC3)CC2)ccc1Nc1ncnc(Nc2ccccc2S(=O)(=O)C(C)C)n1 [ASP-3026] the Kd was > 30 µM (inactive).
Cc1cc([C@@H](C)Nc2ccccc2C(=O)O)c2nc(N3CCOCC3)cc(=O)n2c1 [AZD-6482] gave a Kd of 4.1 µM.
In the case of COc1ccc(-c2ccc3c(N4CCOC[C@@H]4C)nc(N4CCOC[C@@H]4C)nc3n2)cc1CO [AZD-8055], the Kd is reported as > 30 µM (inactive).
